Test results taken from patent publication US9879013B2, “Purinone derivative” (ONO PHARMACEUTICAL CO., LTD., priority 2010, dated 2018).

What was measured:
Format in all cases: cell-based
Human liver cells = assay: Cytotoxicity in cultured human hepatoma cells (ATP concentration, Celltiter Glo); settings: 50% decline in ATP concentration, exposure for 24 hours, read-out: Toxicity for human liver cells (IC50 (μM))
Protocol: Measurement of the Cytotoxicity and Ability to Reduce the Mitochondrial Membrane Potential in Cultured Human Hepatoma Cells
Human liver cells were seeded into a collagen-coated 96-well plate at a cell density of 30,000 cells/well and incubation was carried out overnight in an incubator at 37° C. in 5% CO2-95% air. The cultured cells were stained for 1 hour with 5,5′,6,6′-tetrahydro-1,1′,3,3′-tetramethyl-benzamidazolocarbocyanine iodide (JC-1) followed by treatment with the test compound. The test compound was dissolved in DMSO and then diluted with the liquid culture medium Hepatocyte Culture Medium (HCM) and added to the cells. The test compound treatment concentrations were 0, 6.25, 12.5, 25, 50, 100, 200, and 400 μmol/L. After exposure to the test compound for 24 hours, measurement was performed with a SpectraMax plate reader (Molecular Devices, LLC) at an excitation wavelength of 485 nm and a fluorescence wavelength of 538 nm and an excitation wavelength of 544 nm and a fluorescence wavelength of 590 nm. The membrane potential was determined by the ratio between the 544 nm/590 nm measurement value and the 485 nm/538 nm measurement value. After this, the ATP concentration in the cells was measured using a Celltiter Glo luminescent assay kit (Promega Corporation) in order to evaluate the cell toxicity of the test compound. The cells were lysed by the assay buffer provided with the measurement kit and the concentration of the ATP released from the cells was measured using the luciferin-luciferase enzyme activity as the index. The emission was measured using a SpectraMax plate reader. […] The ability to lower the mitochondrial membrane potential of the test compounds and the cytotoxicity of the test compounds are given in Table 3 below.

[1] = tested on: T cells (CD3-positive CD20-negative cells) of human PBMC; assay: T cell activation using human PBMC (CD69-positive signal, FACS); settings: anti-CD3/CD28 antibody beads, 16 hours
Protocol: (§1) Measurement of B Cell Activation or T Cell Activation Using Human PBMC
(§2) A 10 mmol/L solution of the test compound in DMSO was dispensed into a 96-well plate (Nunc) and a 5× dilution series was prepared using DMSO. A 100× concentration test compound dilution solution was prepared by an additional 10× dilution with RPMI1640 medium (contained 10% HI-FBS, 1% penicillin). Human peripheral blood mononuclear cells (PBMC) were diluted with the medium to provide a density of 2×10^6 cells/mL. 396 μL of the cell suspension was added to a 96-well plate into which 4 μL of the 100× concentration test compound dilution solution or the solvent (10% DMSO) had already been introduced and incubation was performed for 10 minutes at 37° C. and 5% CO2. 10 μL of an anti-IgM antibody (Southern Biotech)/IL-4 (R & D Systems) solution or an anti-CD3/CD28 antibody bead suspension (Invitrogen Corporation) was added to a 96-well plate and 90 μL of the cell suspension prepared as described above was also added (final concentrations: anti-IgM antibody=1 μg/mL, IL-4=3 ng/mL, and anti-CD3/CD28 antibody beads=2×10^6 beads/mL). 10 μL of the medium was added to the unstimulated sample wells in place of these stimulating substances, and standing at 37° C. and 5% CO2 was again performed. Incubation was carried out for 16 hours in the case of the evaluation of T cell activation and for 22 hours in the case of the evaluation of B cell activation. 100 μL Cytofix Buffer (BD Biosciences) was added; holding for 15 minutes at 37° C. was performed; centrifugation for 10 minutes at 1500 rpm was carried out; and the supernatant was removed. 200 μL of Perm buffer II (BD Biosciences) at −20° C. was added; holding for 30 minutes on ice was performed; centrifugation for 10 minutes at 1500 rpm was carried out; and the supernatant was removed. 0.5 mL Stain buffer (BD Biosciences) was added and centrifugation was carried out for 10 minutes at 1500 rpm. 100 μL of a mixed antibody solution was added and incubation was performed for 30 minutes on ice in the dark. The antibody was the 10× dilution with Stain Buffer of the 1:1:1 mixture of PerCP-labeled anti-CD3 antibody (BD Biosciences), AF488-labeled anti-CD20 antibody (BD Biosciences), and PE-labeled anti-CD69 antibody (BD Biosciences). 0.4 mL Stain Buffer was added and the supernatant was removed. […] The CD69-positive signal (average fluorescence intensity) of the CD20-positive CD3-negative cells (B cells) or CD3-positive CD20-negative cells (T cells) was measured. After subtracting the value for the unstimulated sample, the % inhibition with reference to the value for the stimulated control sample was determined. The % inhibition was graphically plotted using Prism (ver. 5.01 J, GraphPad Software) and the IC50 value was determined.

[2] = tested on: B cells (CD20-positive CD3-negative cells) of human PBMC; assay: B cell activation using human PBMC (CD69-positive signal, FACS); settings: anti-IgM antibody 1 μg/mL / IL-4 3 ng/mL, 22 hours
Protocol: as §1, §2

SMILES: C=CC(=O)N1CC(n2c(=O)n(-c3ccc(Oc4ccccc4)cc3)c3c(N)ncnc32)C1 [Example 8, 9-(1-acryloyl-3-azetidinyl)-6-amino-7-(4-phenoxyphenyl)-7,9-dihydro-8H-purin-8-one]
- IC50 (Human liver cells): 290 µM
- IC50 [1]: > 10 µM
- IC50 [2]: 0.021 µM
